Experimental data taken from patent US6585991B1, “Termite bait matrix” (The United States of America as represented by the …, priority 1999, dated 2003).

What was measured:
[1] = tested on: termite workers and soldiers; test: Non-choice tests of antibiotics and a fungus inhibitor in bait matrix; format: in vivo; conditions: 100 ppm in bait matrix; after three weeks of exposure
Experimental: Non-choice tests using five different antibiotics (streptomycin sulfate, rifampicin, albendazole, neomycin sulfate, and antimycotic) and a fungus inhibitor (sorbic acid) were conducted at four different concentrations (100, 250, 500, and 1000 ppm). Individual chemicals were mixed with the bait matrix of Example 3 at each concentration and 10 g samples of each were transferred to sterile plastic Petri dishes and exposed to groups of 20 termite workers and two soldiers. Five repetitions per treatment were done. The dishes were kept in a Percival incubator under dark conditions at 27±1° C. and 80% relative humidity. A control containing no antibiotic or fungus inhibitor was prepared and kept under the same conditions as the treatments. Time required to reach 100% mortality was recorded.

[2] = tested on: Formosan subterranean termite colony; test: Pair choice test, yellow pine versus bait matrix mixed with hexaflumuron; format: in vivo, Coptotermes formosanus; conditions: 50 ppm hexaflumuron in bait matrix; period of 10 weeks; colony of 1500
Experimental: To determine the acceptance by the Formosan subterranean termite of the bait matrix of Example 3 with toxic chemicals added, a pair choice test between a 25 g piece of yellow pine and an equivalent amount of bait matrix mixed with 50-ppm hexaflumuron was performed. Both pine and bait matrix were exposed to a Formosan termite colony composed of 1500 soldiers, workers, and nymphs, housed in a plastic Sterilite container containing 2L topsoil:sand (1:1) at 40% relative humidity. The treatment box was maintained under dark conditions at 26±3° C. A control, 12″ yellow pine wood stakes without hexaflumuron, was prepared and kept at the same conditions as the treatment.

termite = conditions: 125 ppm hexaflumuron in a matrix composed of spruce sawdust; cited from earlier work

With `CCCSc1ccc2nc(NC(=O)OC)[nH]c2c1` [albendazole] as the compound, how does the Mortality [1] read?
The Mortality was 40%.

For `O=C(NC(=O)c1c(F)cccc1F)Nc1cc(Cl)c(OC(F)(F)C(F)F)c(Cl)c1` [hexaflumuron], which Mortality [2] is on record?
Its Mortality is 100%.

What about the “Mortality compared with 50 ppm in bait matrix (100% in 10 weeks)” value (termite) of the same compound?
Its value is “equivalent”.

With `C/C=C/C=C/C(=O)O` [sorbic acid] as the compound, how does the Mortality [1] read?
Its Mortality is 33%.

With neomycin sulfate as the compound, how does the Mortality [1] read?
Its Mortality is 40%.
